Laboratory results published in PubChem BioAssay (NCI).
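Briefly, cells in 96-well plates were exposed to five compound concentrations for 48 h, and endpoints were estimated by linear interpolation. GI50 marks 50% less growth. TGI denotes the concentration required for complete inhibition of growth.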

What was measured:
Assay in all cases: NCI-60 cell line screen, 48 h
786-0 renal = system: 786-0 renal
A498 renal = system: A498 renal
A549 NSCLC = system: A549 NSCLC
ACHN renal = system: ACHN renal
BT-549 breast = system: BT-549 breast
CAKI-1 renal = system: CAKI-1 renal
CCRF-CEM leukemia = system: CCRF-CEM leukemia
COLO 205 colon = system: COLO 205 colon
DU-145 prostate = system: DU-145 prostate
EKVX NSCLC = system: EKVX NSCLC
HCC-2998 colon = system: HCC-2998 colon
HCT-116 colon = system: HCT-116 colon
HCT-15 colon = system: HCT-15 colon
HL-60(TB) leukemia = system: HL-60(TB) leukemia
HOP-62 NSCLC = system: HOP-62 NSCLC
HOP-92 NSCLC = system: HOP-92 NSCLC
HS 578T breast = system: HS 578T breast
HT29 colon = system: HT29 colon
IGROV1 ovarian = system: IGROV1 ovarian
K-562 leukemia = system: K-562 leukemia
KM12 colon = system: KM12 colon
LOX IMVI melanoma = system: LOX IMVI melanoma
M14 melanoma = system: M14 melanoma
MALME-3M melanoma = system: MALME-3M melanoma
MCF7 breast = system: MCF7 breast
MDA-MB-231 breast = system: MDA-MB-231 breast
MDA-MB-435 = system: MDA-MB-435
MOLT-4 leukemia = system: MOLT-4 leukemia
NCI-H226 lung = system: NCI-H226 lung
NCI-H23 lung = system: NCI-H23 lung
NCI-H460 lung = system: NCI-H460 lung
NCI-H522 lung = system: NCI-H522 lung
NCI/ADR-RES ovarian = system: NCI/ADR-RES ovarian
OVCAR-3 ovarian = system: OVCAR-3 ovarian
OVCAR-4 ovarian = system: OVCAR-4 ovarian
OVCAR-5 ovarian = system: OVCAR-5 ovarian
OVCAR-8 ovarian = system: OVCAR-8 ovarian
PC-3 prostate = system: PC-3 prostate
RPMI-8226 leukemia = system: RPMI-8226 leukemia
RXF 393 renal = system: RXF 393 renal
SF-268 CNS = system: SF-268 CNS
SF-295 CNS = system: SF-295 CNS
SF-539 CNS = system: SF-539 CNS
SK-MEL-2 melanoma = system: SK-MEL-2 melanoma
SK-MEL-28 melanoma = system: SK-MEL-28 melanoma
SK-MEL-5 melanoma = system: SK-MEL-5 melanoma
SK-OV-3 ovarian = system: SK-OV-3 ovarian
SN12C renal = system: SN12C renal
SNB-19 CNS = system: SNB-19 CNS
SNB-75 CNS = system: SNB-75 CNS
SR leukemia = system: SR leukemia
SW-620 colon = system: SW-620 colon
T-47D breast = system: T-47D breast
TK-10 renal = system: TK-10 renal
U251 CNS = system: U251 CNS
UACC-257 melanoma = system: UACC-257 melanoma
UACC-62 melanoma = system: UACC-62 melanoma
UO-31 renal = system: UO-31 renal

SMILES: COc1ccccc1N(C(C)=O)C1=C(Cl)C(=O)c2ccccc2C1=O
- GI50 (786-0 renal): 3150 nM
- TGI (786-0 renal): 12000 nM
- GI50 (A498 renal): 1540 nM
- TGI (A498 renal): 7690 nM
- GI50 (A549 NSCLC): 3430 nM
- TGI (A549 NSCLC): 13500 nM
- GI50 (ACHN renal): 1430 nM
- TGI (ACHN renal): 2730 nM
- GI50 (BT-549 breast): 1890 nM
- TGI (BT-549 breast): 8250 nM
- GI50 (CAKI-1 renal): 1450 nM
- TGI (CAKI-1 renal): 3300 nM
- GI50 (CCRF-CEM leukemia): 1950 nM
- TGI (CCRF-CEM leukemia): 5110 nM
- GI50 (COLO 205 colon): 1510 nM
- TGI (COLO 205 colon): 2840 nM
- GI50 (DU-145 prostate): 3460 nM
- TGI (DU-145 prostate): 12000 nM
- GI50 (EKVX NSCLC): 751 nM
- TGI (EKVX NSCLC): 6950 nM
- GI50 (HCC-2998 colon): 2230 nM
- TGI (HCC-2998 colon): 8610 nM
- GI50 (HCT-116 colon): 760 nM
- TGI (HCT-116 colon): 2180 nM
- GI50 (HCT-15 colon): 1040 nM
- TGI (HCT-15 colon): 2610 nM
- GI50 (HL-60(TB) leukemia): 2240 nM
- TGI (HL-60(TB) leukemia): 5530 nM
- GI50 (HOP-62 NSCLC): 3030 nM
- TGI (HOP-62 NSCLC): 12600 nM
- GI50 (HOP-92 NSCLC): 304 nM
- TGI (HOP-92 NSCLC): 1850 nM
- GI50 (HS 578T breast): 2700 nM
- TGI (HS 578T breast): > 71900 nM
- GI50 (HT29 colon): 1890 nM
- TGI (HT29 colon): 4450 nM
- GI50 (IGROV1 ovarian): 2820 nM
- TGI (IGROV1 ovarian): 10300 nM
- GI50 (K-562 leukemia): 2230 nM
- TGI (K-562 leukemia): 7670 nM
- GI50 (KM12 colon): 1060 nM
- TGI (KM12 colon): 5480 nM
- GI50 (LOX IMVI melanoma): 2290 nM
- TGI (LOX IMVI melanoma): 8080 nM
- GI50 (M14 melanoma): 1880 nM
- TGI (M14 melanoma): 5910 nM
- GI50 (MALME-3M melanoma): 1660 nM
- TGI (MALME-3M melanoma): 3200 nM
- GI50 (MCF7 breast): 2400 nM
- TGI (MCF7 breast): 10500 nM
- GI50 (MDA-MB-231 breast): 2030 nM
- TGI (MDA-MB-231 breast): 6230 nM
- GI50 (MDA-MB-435): 1900 nM
- TGI (MDA-MB-435): 4550 nM
- GI50 (MOLT-4 leukemia): 2940 nM
- TGI (MOLT-4 leukemia): > 25100 nM
- GI50 (NCI-H226 lung): 1510 nM
- TGI (NCI-H226 lung): 6010 nM
- GI50 (NCI-H23 lung): 1650 nM
- TGI (NCI-H23 lung): 6000 nM
- GI50 (NCI-H460 lung): 3170 nM
- TGI (NCI-H460 lung): 12200 nM
- GI50 (NCI-H522 lung): 330 nM
- TGI (NCI-H522 lung): 1420 nM
- GI50 (NCI/ADR-RES ovarian): 2520 nM
- TGI (NCI/ADR-RES ovarian): 11500 nM
- GI50 (OVCAR-3 ovarian): 1150 nM
- TGI (OVCAR-3 ovarian): 2720 nM
- GI50 (OVCAR-4 ovarian): 875 nM
- TGI (OVCAR-4 ovarian): 2140 nM
- GI50 (OVCAR-5 ovarian): 2930 nM
- TGI (OVCAR-5 ovarian): 11500 nM
- GI50 (OVCAR-8 ovarian): 2720 nM
- TGI (OVCAR-8 ovarian): > 32200 nM
- GI50 (PC-3 prostate): 1170 nM
- TGI (PC-3 prostate): 10800 nM
- GI50 (RPMI-8226 leukemia): 833 nM
- TGI (RPMI-8226 leukemia): 3960 nM
- GI50 (RXF 393 renal): 1120 nM
- TGI (RXF 393 renal): 2450 nM
- GI50 (SF-268 CNS): 3190 nM
- TGI (SF-268 CNS): 12500 nM
- GI50 (SF-295 CNS): 2380 nM
- TGI (SF-295 CNS): 6500 nM
- GI50 (SF-539 CNS): 1450 nM
- TGI (SF-539 CNS): 4770 nM
- GI50 (SK-MEL-2 melanoma): 1890 nM
- TGI (SK-MEL-2 melanoma): 4570 nM
- GI50 (SK-MEL-28 melanoma): 2400 nM
- TGI (SK-MEL-28 melanoma): 7030 nM
- GI50 (SK-MEL-5 melanoma): 1190 nM
- TGI (SK-MEL-5 melanoma): 2630 nM
- GI50 (SK-OV-3 ovarian): 2460 nM
- TGI (SK-OV-3 ovarian): 7330 nM
- GI50 (SN12C renal): 2830 nM
- TGI (SN12C renal): 12100 nM
- GI50 (SNB-19 CNS): 3160 nM
- TGI (SNB-19 CNS): > 40800 nM
- GI50 (SNB-75 CNS): 1720 nM
- TGI (SNB-75 CNS): 7600 nM
- GI50 (SR leukemia): 1780 nM
- TGI (SR leukemia): 5160 nM
- GI50 (SW-620 colon): 1060 nM
- TGI (SW-620 colon): 2550 nM
- GI50 (T-47D breast): 382 nM
- TGI (T-47D breast): 2950 nM
- GI50 (TK-10 renal): 1870 nM
- TGI (TK-10 renal): 3300 nM
- GI50 (U251 CNS): 2620 nM
- TGI (U251 CNS): 11800 nM
- GI50 (UACC-257 melanoma): 2140 nM
- TGI (UACC-257 melanoma): 4390 nM
- GI50 (UACC-62 melanoma): 502 nM
- TGI (UACC-62 melanoma): 2920 nM
- GI50 (UO-31 renal): 1030 nM
- TGI (UO-31 renal): 2560 nM
